Experiments:
[1] = DPPH radical scavenging assay; conditions: 0.1 mg/mL; Trolox equivalents
Procedure: The DPPH assay was evaluated according to Aadil (2013) and Bonetti (2016). Fifty microliters of samples (cortisone, SCA and SCB) were added to […] of 0.06 mM of methanolic DPPH· radical solution. The reaction mixture was left to stand at room temperature in the dark for 15 min. The absorbance for the sample (Asample) was measured at 515 nm against methanol blank. A control was the absorbance of DPPH· solution.
Methanolic solutions with different Trolox concentrations (0.05 − 1 mM/L) were analyzed for calibration curve. The free radical scavenging capacity was expressed as micromolar of Trolox equivalents (TEs)/g of SCA and SCB compounds using calibration curve.

[2] = Photochemiluminescence (PCL-ACL) antioxidant assay; conditions: 0.1 mg/mL; Trolox equivalents per g of sample
Procedure: Photochemiluminescence assay, based on the methodology of Popov and Lewin [35], was performed to measure the antioxidant activity of cortisone, SCA and SCB compounds against superoxide anion radicals generated from luminol, a photosensitizer, when exposed to UV light at λmax = 351 nm. The antioxidant activity of compounds was measured using ACL kits (Analytic Jena, Jena, Germany) with a Photochem apparatus (Analytic Jena, Jena, Germany). In the PCL-ACL assay, the photochemical generation of free radicals is combined with the sensitive detection using chemiluminescence. In ACL studies, the kinetic light emission curve was monitored for 3 min and expressed as mM Trolox equivalents. The areas under the curves were calculated using the PCL soft control and analysis software. […] The observed inhibition of the signal was plotted against the concentration of Trolox added to the assay medium. The concentration of the added sample was such that the generated luminescence during the 3 min sampling interval fell within the limits of the standard curve. For ACL assay, 2.3 mL of reagent 1 (solvent and dilution reagent, methanol), 0.2 mL of reagent 2 (buffer solution), 25 μL of reagent 3 (photosensitizer: luminol 1 mmol L^−1), and 10 μL of standard or sample solution were mixed and measured. Luminol is used as a photosensitizer and as a detecting substance for free radicals. Trolox were used for the standard calibration curve from […].

[3] = test system: Salmonella typhimurium TA98; experiment: Ames test (plate incorporation), strain TA98; assay type: cell-based
Procedure: Mutagenicity assay was performed following the plate incorporation method with the histidine-requiring Salmonella typhimurium mutant TA98 and TA100 strains. All strains (100 µl per plate of fresh overnight cultures) were checked with and without the addition of 0.5 mL of a 5% S9 exogenous metabolic activator (S9 mix). The lyophilized post-mitochondrial supernatant S9 mix (Aroclor 1254-induced, Sprague–Dawley male rat liver in 0.154 M KCl solution, Molecular Toxicology, Inc., Boone, NC, USA), commonly used for the activation of pro-mutagens to mutagenic metabolites, was stored at− 80 °C before use. The concentration tested for all the samples were 1, 5, 10, 50, 100 µL/plate of a stock solution 100 mg/mL.
A fully-grown culture of the appropriate tester strain (0.1 mL) was added to 2 mL Molten Top Agar (0.6% agar, 0.6% NaCl, 0.5 mM L-histidine/biotin solution) at 46 °C, together with 0.1 mL of each sample solution at different concentrations, and 0.5 mL S9 mix for assays with metabolic activation or 0.5 mL of phosphate buffer pH 7.4 to test without metabolic activation. The ingredients were thoroughly mixed and poured onto minimal glucose agar plates (1.5% agar in 2% Vogel–Bonner medium E with 5% glucose solution).
DMSO was used as a negative control (100 µl/plate). Positive controls were prepared as follows: 2-aminoanthracene (2 µg/plate) and 2-nitrofluorene (2 µg/plate) for TA98 with and without metabolic activator (S9 mix) respectively; 2-aminoanthracene (2 µg/plate) and sodium azide (2 µg/plate) for TA100, with and without metabolic activator (S9 mix) respectively. The plates were incubated at 37 °C for 72 h and then the his^+ revertants were checked and counted using a Colony Counter 560 Suntex (Antibioticos, Italy). A sample was considered mutagenic when the observed number of colonies was at least twofold over the spontaneous level of revertants. All determinations were made in triplicate. Relative standard deviations were computed using the statistical software […] 6.0 (StatSoft Italia srl).

[4] = TA98, + S9, 1 µL/plate of a stock solution 100 mg/mL
[5] = TA98, + S9, 5 µL/plate of a stock solution 100 mg/mL
[6] = TA98, + S9, 10 µL/plate of a stock solution 100 mg/mL
[7] = TA98, + S9, 50 µL/plate of a stock solution 100 mg/mL
[8] = TA98, + S9, 100 µL/plate of a stock solution 100 mg/mL
[9] = TA98, − S9, 1 µL/plate of a stock solution 100 mg/mL
[10] = TA98, − S9, 5 µL/plate of a stock solution 100 mg/mL
[11] = TA98, − S9, 10 µL/plate of a stock solution 100 mg/mL
[12] = TA98, − S9, 50 µL/plate of a stock solution 100 mg/mL
[13] = TA98, − S9, 100 µL/plate of a stock solution 100 mg/mL

SMILES	DPPH radical scavenging activity (in words) [1]	antioxidant capacity, PCL-ACL assay [2] [µmol/g]	genotoxic activity (Ames test) [3]	average number of revertant colonies [3, 4]	t/c (revertant colonies in treated plates/untreated plates) [3, 4]	average number of revertant colonies [3, 5]	t/c (revertant colonies in treated plates/untreated plates) [3, 5]	average number of revertant colonies [3, 6]	t/c (revertant colonies in treated plates/untreated plates) [3, 6]	average number of revertant colonies [3, 7]	t/c (revertant colonies in treated plates/untreated plates) [3, 7]	average number of revertant colonies [3, 8]	t/c (revertant colonies in treated plates/untreated plates) [3, 8]	average number of revertant colonies [3, 9]	t/c (revertant colonies in treated plates/untreated plates) [3, 9]	average number of revertant colonies [3, 10]	t/c (revertant colonies in treated plates/untreated plates) [3, 10]	average number of revertant colonies [3, 11]	t/c (revertant colonies in treated plates/untreated plates) [3, 11]	average number of revertant colonies [3, 12]	further results
Cc1ccc(O)c2c1CCC1C3CC[C@](O)([C@H](O)CO)[C@@]3(C)CC(=O)[C@@]21O (stereo partly drawn) [SCB, 1,9β,17,20β,21‐ pentahydoxy‐4‐methyl‐19‐nor‐9β‐pregna‐1,3,5(10)‐trien‐11‐one]	high antioxidant property compared with the cortisone precursor	1265	For none of the samples genotoxic activity emerged	34	1.1	35	1.1	35	1.1	31	1.0	30	0.9	24	1.0	23	0.9	22	0.9	21	t/c (revertant colonies in treated plates/untreated plates) [3, 12]: 0.9; average number of revertant colonies [3, 13]: 19; t/c (revertant colonies in treated plates/untreated plates) [3, 13]: 0.8
Cc1ccc(O)c2c1CCC1C3CC[C@](O)(C(=O)CO)[C@@]3(C)CC(=O)[C@@]21O (stereo partly drawn) [SCA, 1,9β,17,21‐tetrahydoxy‐4‐methyl‐19‐nor‐9β‐pregna‐1,3,5(10)‐trien‐11,20‐dione]	high antioxidant property compared with the cortisone precursor	1375	For none of the samples genotoxic activity emerged	43,7	1.2	43,3	1.2	41,3	1.1	39,3	1.1	41,3	1.1	17,7	0.9	23,7	1.1	23,3	1.1	25,3	t/c (revertant colonies in treated plates/untreated plates) [3, 12]: 1.2; average number of revertant colonies [3, 13]: 20,3; t/c (revertant colonies in treated plates/untreated plates) [3, 13]: 1.0
